From ChEMBL document CHEMBL3272277, “Stereocontrolled glycosidation of daunomycinone. Synthesis and biological evaluation of 6-hydroxy-L-arabino analogues of antitumor anthracyclines” (J Med Chem, 1976)
Values after ≈ are worked out from the molar mass of the structure shown.

Tests used:
[1] = Antiproliferative activity against MEF after 72 hrs; assay type: cell-based; conditions: mouse, MEF cells; read-out: ID50
Mus musculus [2] = assay: Toxicity in mouse allografted with mouse Sarcoma 180 cells assessed as mortality at 10 mg/kg, ip on day 1 post challenge; assay type: organism-based; parameters: dose 10 mg/kg, route intraperitoneal; conditions: in vivo
MEF = assay: Inhibition of Murine sarcoma virus (Moloney) foci formation in MEF after 72 hrs; assay type: functional; conditions: Mus musculus, read-out: ID50 (the source's name)
HeLa = assay: Cytotoxicity against human HeLa cells assessed as cloning efficiency after 8 hrs; assay type: functional; conditions: read-out: ID50 (the source's name)
Mus musculus [3] = assay: Toxicity in mouse allografted with mouse Sarcoma 180 cells assessed as mortality at 2 mg/kg, ip on day 1 post challenge; assay type: organism-based; parameters: dose 2 mg/kg, route intraperitoneal; conditions: in vivo
Sarcoma-180 [4] = assay: Antitumor activity against mouse Sarcoma 180 cells allografted in mouse assessed as average survival time at 10 mg/kg, ip on day 1 post challenge relative to untreated control; assay type: functional; conditions: route intraperitoneal
Mus musculus [5] = assay: Toxicity in mouse allografted with mouse Sarcoma 180 cells assessed as mortality at >5 mg/kg, ip on day 1 post challenge; assay type: organism-based; conditions: in vivo
Sarcoma-180 [6] = assay: Antitumor activity against mouse Sarcoma 180 cells allografted in mouse assessed as average survival time at 2 mg/kg, ip on day 1 post challenge relative to untreated control; assay type: functional; conditions: route intraperitoneal

COc1cccc2c1C(=O)c1c(O)c3c(c(O)c1C2=O)C[C@@](O)(C(C)=O)C[C@@H]3O[C@H]1C[C@H](N)[C@@H](O)[C@H](CO)O1.Cl
GI50 at 72 h [1]: 0.256 µg/mL | Activity (Mus musculus [2]): Non-toxic | IC50 (MEF): 0.1 µg/mL | IC50 (HeLa): > 10 µg/mL | Activity (Mus musculus [3]): Non-toxic | T/C (Sarcoma-180 [4]): 167%

COc1cccc2c1C(=O)c1c(O)c3c(c(O)c1C2=O)C[C@@](O)(C(=O)CO)C[C@@H]3O[C@H]1C[C@H](N)[C@@H](O)[C@H](CO)O1
GI50 at 72 h [1]: 0.05 µg/mL (≈ 0.0894 µM) | Activity (Mus musculus [2]): Non-toxic | IC50 (MEF): 0.025 µg/mL (≈ 0.0447 µM) | IC50 (HeLa): 1 µg/mL (≈ 1.79 µM) | Activity (Mus musculus [3]): Non-toxic | T/C (Sarcoma-180 [4]): 162%

COc1cccc2c1C(=O)c1c(O)c3c(c(O)c1C2=O)C[C@@](O)(C(C)=O)C[C@@H]3O[C@H]1C[C@H](N)[C@@H](O)[C@H](C)O1
Activity (Mus musculus [5]): Toxic

COc1cccc2c1C(=O)c1c(O)c3c(c(O)c1C2=O)C[C@@](O)(C(C)=O)C[C@@H]3O[C@H]1C[C@H](N)[C@H](O)[C@H](C)O1 [DAUNORUBICIN]
GI50 at 72 h [1]: 0.009 µg/mL (≈ 0.0171 µM) | IC50 (MEF): 0.0055 µg/mL (≈ 0.0104 µM) | T/C (Sarcoma-180 [6]): 192% | IC50 (HeLa): 0.013 µg/mL (≈ 0.0246 µM)

COc1cccc2c1C(=O)c1c(O)c3c(c(O)c1C2=O)C[C@@](O)(C(=O)CO)C[C@@H]3O[C@H]1C[C@H](N)[C@H](O)[C@H](C)O1.Cl [DOXORUBICIN HYDROCHLORIDE]
GI50 at 72 h [1]: 0.007 µg/mL | IC50 (MEF): 0.0025 µg/mL | T/C (Sarcoma-180 [6]): 210% | IC50 (HeLa): 0.11 µg/mL

COc1cccc2c1C(=O)c1c(O)c3c(c(O)c1C2=O)C[C@@](O)(C(=O)CO)C[C@@H]3O[C@H]1C[C@H](N)[C@@H](O)[C@H](C)O1 [EPIRUBICIN]
Activity (Mus musculus [5]): Toxic
